From US20240384232A1, “CLINICAL-GRADE THERAPEUTIC PROGENITORS GENERATED FROM TANKYRASE/PARP-INHIBITED PLURIPOTENT STEM CELL BANKS” (THE JOHNS HOPKINS UNIVERSITY, priority 2022, published 2024)
“Also recorded” adds a separate entry of the source.

Columns and labels:
[1] = tested on: E5C3 CB-hiPSC; assay: Retention of TRA-1-81+SSEA4+ phenotype by FACS after removing single inhibitors from LIF-4i; format: cell-based, human; conditions: for Effect of removing the inhibitor from LIF-4i on the TRA-1-81+SSEA4+ phenotype: E5C3 kept in LIF-4i for 3 passages (6 days), then inhibitor removed, feeder-free
From the text: FIGS. 8A-8C. […] Alternatively, E5C3 CB-hiPSC were maintained in LIF-4i for 3passages (6 days) and then cither XAV939 (E5C3-XAV939, square datapoints, dotted line) or Go6983 (E5C3 LIF-3i, triangles, dashed line) were removed from the LIF-4i formulation. […] (8B) Representative photomicrographs and flow cytometry plots of CB-hiPSC when continuously cultured in LIF-4i (LIF+4i, 6 passages), or when cultured in LIF-4i for 3 passages and then transferred into FF conditions that omitted for 3 passages the PKC inhibitor Go6983 (LIF+3i) or the tankyrase/PARP inhibitor XAV939 (without XAV939) or without XAV939 and reducing the concentration of CHIR99021 (without XAV939, CHIR 1 uM).

[2] = tested on: tankyrase PARylating activity and PARP1-mediated PARylation; conditions: 293T cells; cited from earlier work
[3] = tested on: tankyrases 1 and 2 (TANK 1/2) and AXIN-1 proteins; assay: Western blot of tankyrase-regulated proteins in primed vs LIF-4i TIRN cultures; format: cell-based, human; conditions: LIF-4i (contains XAV939) vs isogenic primed E8
Protocol: Western blots were performed of primed vs. TIRN lysates of hESC RUES02 and three independent XF/FF UTIRN CB-hiPSC lines (E32C1XF, E32C4XF, E32C6XF). ACTIN, HSP90 and total STAT3 served as internal loading controls. Western blots of XAV939-inhibited proteolysis of tankyrases 1 and 2(TANK 1/2) and AXIN-1 proteins in isogenic primed vs. TIRN conditions for TIRN-reverted RUES02 and XF/FF CB-hiPSC lines. Western blot analysis of hPSC lines in primed (E8) and naïve (LIF-4i) cultures for expression of phosphorylated (phospho.) STAT3 and ERK1/2, tankyrase 1/2 and axin1.
Cell lysates were prepared from parallel primed (E8) and TIRN (LIF-4i) cultures and 20 or 35 ug of proteins were loaded per lane.

[4] = tested on: LIF-4i UTIRN-CB-hiPSC (E32C6XF); assay: Cell attachment during passaging onto Vitronectin-XF-coated plates; format: cell-based, human; conditions: overnight exposure, 2-5 uM
From the text: FIGS. 9A-9C. Optimization of the transition step from E8 primed hPSC conditions to LIF-4i TIRN conditions: clonal cell passaging. (9A) Clonal efficiency during the first passage in LIF-4i TIRN conditions for hESC line (RUES01). Supplementation of LIF-3i with forskolin and purmophamine (i.e., LIF-5i) and brief adaptation of primed hPSC was previously shown to facilitate clonal transition and survival of primed cells to TIRN hPSC when subsequently cultured continuously in LIF-3i TIRN conditions on feeders. […] Therefore, the brief LIF-5i adaptation period was limited to only overnight exposure prior to passaging. […] (9A—middle, right panels) In contrast, high density culture in E8 (e.g., up to 6 days) prior to passaging in LIF-4i negatively impacted the transition into LIF-4i TIRN conditions. Photomicrographs represent primed cultures immediately prior to passaging into LIF-4i TIRN conditions. (9B) Requirement for ROCK inhibitor Y27632during passaging.
FIG. 7A outlines the transition between primed (i.e. E8) and the LIF-4i FF-TIRN-reverted system. Upon passaging into LIF-4i, hPSC immediately adopt a smaller dome-shaped morphology that expands from single cells. Photomicrographs document the morphology of the hiPSC line 6.2 during the first passages into LIF-4i (bulk passaging without colony picking) and after stable expansion for 10 consecutive passages (FIG. 7B). […]

[5] = tested on: Primed E8 and LIF-4i UTIRN-hiPSC; assay: DNA damage induction with radiomimetic, Western blot of DNA repair machinery; format: cell-based, human; conditions: 4 hours treatment; TIRN-hPSC vs primed E8 hPSC
From the text: FIGS. 20A-20B. Induction of DNA damage in primed hPSC and XF/FF UTIRN-hPSC following exposure to the radiomimetic DNA damage inducing agent neocarzinostatin (NCS). Unlike somatic cells, naïve mouse embryonic stem cells (ESC) employ homologous recombination machinery to repair double strand breaks. However, imbalanced levels of DNAPKc in mouse ESC results into poor capacity for rejoining of radiation-induced DNA double-strand breaks in comparison to human primed ESC.
Methods. Conventional (primed) XF CB-hiPSC lines and control H9 hESC were grown in E8 medium. Isogenic TIRN-hPSC were cultured in parallel using LIF-4i. For Western blotting, whole cell lysates were prepared in RIPA buffer, 1.5 mM EDTA with protease inhibitor. Protein lysates were quantified using the BCA assay. Equal amounts of total protein lysate (e.g., 20 μg) were loaded into precast polyacrylamide gradient gels, size-separated using the Mini-PROTEAN electrophoresis system and blotted onto PDVF membranes for chemiluminescent analysis. Primed hPSC and isogenic TIRN-hPSC were assayed for endogenous DNA damage during routine culture (FIG. 20) or upon DSB induction using the radiomimetic agent neocarzinostatin (NCS). In these experiments, hPSC were treated for 4 hours with NCS before preparing lysates. […]

For Cc1cnc(-c2cnc(NCCNc3ccc(C#N)cn3)nc2-c2ccc(Cl)cc2Cl)[nH]1 [CHIR99021, 6-[[2-[[4-(2,4-Dichlorophenyl)-5-(5-methyl-1H-imidazol-2-yl)-2-pyrimidinyl]amino]ethyl]amino]-3-pyridinecarbonitrile], the “Rescue of XAV939 depletion by reduced CHIR99021 concentration” value ([1]; E5C3, without XAV939, CHIR99021 @ 1 uM) was “not rescued”.

In the case of COc1ccc2c(c1)c(C1=C(c3c[nH]c4ccccc34)C(=O)NC1=O)cn2CCCN(C)C [Go6983], the “Effect of removing the inhibitor from LIF-4i on the TRA-1-81+SSEA4+ phenotype” value [1] is reported as “hiPSC started differentiating after a few days without Go6983”.

In the case of Oc1nc(-c2ccc(C(F)(F)F)cc2)nc2c1CSCC2 [XAV939], the “Effect on tankyrase and PARP1-mediated PARylation” value [2] is listed as “downregulate tankyrase PARylating activity, but also PARP1-mediated PARylation”, the “Effect of removing the inhibitor from LIF-4i on the TRA-1-81+SSEA4+ phenotype” value [1] is listed as “rapid loss of TRA-1-81 and SSEA4 expression” and the “Levels of tankyrase-PARylation-regulated proteins (AXIN1, tankyrases)” value [3] is listed as “tankyrase auto-PARylation and proteolysis is inhibited by XAV939; also recorded: upregulated”.

For C[C@@H](N)[C@H]1CC[C@H](C(=O)Nc2ccncc2)CC1 [Y-27632], the “Promotion of cell attachment during passaging” value [4] was “sufficient and required to promote efficient attachment”.

For neocarzinostatin [NCS], the “phospho-H2AX response to DSB induction” value [5] was “elevated levels of phospho-H2AX”.
